Values quoted from earlier work in article PMC9099118 (Clinical and Translational Science, 2022).

Details: Genuair multidose DPI, HVs; cited from earlier work

## O=C(O[C@H]1C[N+]2(CCCOc3ccccc3)CCC1CC2)C(O)(c1cccs1)c1cccs1 [aclidinium bromide]
  mean emitted lung dose: approximately 35%
